Measurements reported in ChEMBL document CHEMBL5576094, “A Diterpenoid of the Medicinal Plant Andrographis paniculata Targets Cutaneous TRPV3 Channel and Relieves Itch” (J Nat Prod, 2024).

Tests used:
Assay type in all cases: functional
Mus musculus [1] = assay: Antipruritic activity in histamine-induced scratching ICR mouse model assessed as number of scratching bouts at 10 mg/kg, po administered via gavage pretreated for 30 mins followed by histamine stimulation and measured for 30 mins (reference value: 123 +/- 6); settings: time 60 min, 1 h
Mus musculus [2] = assay: Antipruritic activity in histamine-induced scratching ICR mouse model assessed as inhibition of neck scratching behavior at 10 mg/kg, po administered via gavage pretreated for 30 mins followed by histamine stimulation and measured for 30 mins relative to control; settings: 1 h, time 60 min
Mus musculus [3] = species: Mus musculus; assay: Antipruritic activity in carvacrol-induced scratching C57B/6 mouse model assessed as inhibition of neck scratching behavior at 10 uM, ID pretreated for 30 mins followed by carvacrol stimulation and measured for 30 mins relative to control; settings: C57B/6, 1 h, time 60 min
Mus musculus [4] = species: Mus musculus; assay: Antipruritic activity in carvacrol-induced scratching C57B/6 mouse model assessed as inhibition of neck scratching behavior at 50 uM, ID pretreated for 30 mins followed by carvacrol stimulation and measured for 30 mins relative to control; settings: C57B/6, 1 h, time 60 min

Structure (SMILES) | Activity (Mus musculus [1]) | inhibition in vivo at 10 mg/kg (Mus musculus [2]) [%] | inhibition in vivo at 10 µM (Mus musculus [3]) [%] | inhibition in vivo at 50 µM (Mus musculus [4]) [%]
CCOC(=O)N1CCC(=C2c3ccc(Cl)cc3CCc3cccnc32)CC1 [LORATADINE] | 72 | ~40 |  | 
CCCCOc1ccc(C(=O)CCN2CCCCC2)cc1 [DYCLONINE] |  |  | ~41 | 100
